According to patent publication US20230174571A1, “METHOD OF TREATING SHIP1-MEDIATED DISEASES USING PELOROL DERIVATIVES” (Zebrapeutics Inc., priority 2020, published 2023):

What was measured:
MM.1S cells = experiment: MM.1S tumour model in NOD/SCID mice; assay type: in vivo, mouse; settings: NOD/SCID mice bearing MM.1S tumours; administered through drinking water
Description: The IBD model mice were dosed with 2 or 3 mg/kg of compounds of the present disclosure, for example compound I-1. The MM model mice were dosed with about 20 to about 50 mg/kg of compounds of the present disclosure, for example compound I-1. The appropriate amount of 5 mg/mL PBS solution with 5% v/v Cremophore EL/5% v/v ethanol as prepared above was diluted into the mice's drinking water.
MM.1S cells expressing firefly luciferase were injected along with Matrigel basement membrane into the upper flank of NOD/SCID mice and allowed to establish for two weeks. Compound I-1 or vehicle (n=4) were administered through drinking water (as described in General Methods).

PAC2-K681A = target: T1, PAC2-K681A (Mus musculus, UniProt Q9ES52, K681A); experiment: Biolayer interferometry, PAC2-K681A; assay type: binding; settings: 20 μM analyte; K681A vs wild-type PAC2
T1 construct: PAC1 and PAC2 consists of phosphatase and C2 domain (residues aa 402-861 and aa 402-857 respectively); made in house; host or cells: E. coli BL21 co-transformed with pBirAcm
T1 sequence (Q9ES52 402-857 K681A): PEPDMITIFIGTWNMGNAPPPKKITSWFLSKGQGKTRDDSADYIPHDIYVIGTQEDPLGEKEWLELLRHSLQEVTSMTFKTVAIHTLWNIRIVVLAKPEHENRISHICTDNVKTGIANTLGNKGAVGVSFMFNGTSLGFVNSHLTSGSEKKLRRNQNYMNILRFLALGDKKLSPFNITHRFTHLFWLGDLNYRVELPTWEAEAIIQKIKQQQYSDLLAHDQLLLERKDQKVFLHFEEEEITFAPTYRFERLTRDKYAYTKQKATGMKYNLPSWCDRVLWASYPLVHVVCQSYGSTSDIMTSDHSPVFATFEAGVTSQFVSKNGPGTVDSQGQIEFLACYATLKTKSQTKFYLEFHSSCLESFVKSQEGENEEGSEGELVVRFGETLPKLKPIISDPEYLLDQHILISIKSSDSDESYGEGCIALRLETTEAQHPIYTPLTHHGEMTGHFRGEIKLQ
Description: Expression of PAC2-Avi tag for Biolayer interferometry. A sequence corresponding to Avi-tag ([…]) was added to the c-terminal end of the PAC2 in LIC-HMT-PAC2 expressing vector via standard restriction digestion and ligation. The LIC-HMT-PAC2-Avi expressing vector was then co-transformed into E. coli BL21 cells with pBirAcm expression vector in 1:1 molar ratio. Overnight culture was inoculated with a 250-fold dilution to start the actual culture. The cells were grown at 37° C. in LB medium (supplemented with 50 μg/mL of kanamycin and 10 μg/mL of chloramphenicol) with shaking speed of 225 rpm. When OD600 reached about 0.6, 5 mM of biotin in bicine buffer pH 8.3 was added to the culture to have final concentration of 125 μM of biotin. The culture was then cooled down to room temperature before the addition of 0.4 mM isopropyl-B-D-1-thiogalactopyranoside (IPTG) to induce the expression of the recombinant protein with Avi-tag. The rest of the method is identical as written in “Expression of PAC2 for crystallography”.
Biolayer interferometry. […] The association was measured for 600 s at an analyte concentration of 20 μM followed by dissociation for 300 s in the same buffer as the baseline. The raw data was analyzed using the Octet Red Data Analysis software (ver. 8.2). […]

[1] = test system: LPS-stimulated TNFα production; experiment: Measurement of TNFα production in LPS-stimulated SHIP1 KO cells reconstituted with SHIP1; assay type: cell-based, mouse; settings: 10 ng/ml LPS
Description: Cell lines. J16 and J17 cell lines derived from SHIP1+/+and −/−BMDM respectively were previously described (Ming-Lum et al., 2012) and cultured in Mac media (IMDM supplemented with 10% (v/v) FCS, 10 μM β-mercaptoethanol, 150 μM monothioglycolate and 1 mM L-glutamine). J17 cells expressing wild type and mutant His6-SHIP1, Clover-SHIP1 or mRuby2-STAT3 constructs were generated by lentivirus mediated gene transfer as described (Cheung et al., 2013). Transduced cells were selected with 5 μg/ml blasticidin. Clover-SHIP1 and mRuby2-STAT3 cells were further subjected to fluorescent activated cell sorting to select the brightest cells on a FACS Aria II cytometer.
Measurement of TNFα production. Cells were seeded at 50×10^4 cells per well in a 96-well tissue culture plate and allowed to adhere overnight. Media was changed the next day 1 hour prior to stimulation. Cells were stimulated with 1 or 10 ng/ml LPS+/−various concentrations of IL10 for 1 hour. Supernatant was collected and secreted TNFα protein levels were measured using a BD OptEIA Mouse TNFα Enzyme-Linked Immunosorbent Assay (ELISA) kit (BD Biosciences, Mississauga, ON). Triplicates wells were used for each stimulation condition. IC50 values were calculated from three independent experiments and differences in IL10 […] values from cells expressing SHIP1 mutants vs SHIP1 WT protein were analyzed by one-way ANOVA.

For `Cc1cc(O)cc2c1C1(C)CCC3C(C)(C)CCCC3(C)C1C2` (stereo not shown) [Compound I-1], the “tumour mass (bioluminescence imaging)” value (MM.1S cells) was “effectively reduces tumour mass”.

In the case of `CC12CCC3C(C)(C)C(N)CCC3(C)C1Cc1cc(O)cc(O)c12` (stereo not shown) [Compound I-2], the “binding to PAC2 with K681A substitution (BLI)” value (PAC2-K681A) is reported as “impairs”.

In the case of “IL10: anti-inflammatory cytokine interleukin-10”, the TNFα production ([1]; cells expressing K681A SHIP1) is reported as “not” and the TNFα production ([1]; cells expressing wild-type SHIP1) is reported as “inhibited TNFα production efficiently”.
